In patent US20260130369A1, “MARINE ALGICIDES” (Mote Marine Laboratory, Inc., priority 2022, published 2026):

system: K. brevis; assay: K. brevis mortality test of individual pure compounds against red tide cultures; type: cell-based, Karenia brevis; conditions: 100% mortality of K. brevis within 2 hours after administration to a water sample containing K. brevis
Experimental: Shown below in Table 1 are one saturated fatty acid (viz., palmitic acid) and nine exemplary algicidal unsaturated fatty acids, along with their omega nomenclature (viz., number of carbon atoms, number of double bonds, number of carbon atoms from the carboxylic acid end to the first carbon in a double bond) and the required dosage in ppm to obtain 100% mortality of K. brevis, within 2 hours after administration to a water sample containing K. brevis, according to embodiments of the present disclosure.
The relative toxic effects shown in Table 1 were determined by obtaining individual pure compounds and testing them against red tide cultures of K. brevis. The compounds in Table 1 may also be tested as salts or soaps, and in water or non-methanolic solvents such as ethanol, acetone, acetic acid, dimethyl sulfoxide (DMSO) or other polar or non-polar solvent. […] In embodiments, the observed mortality may for example be at least 25%, at least 50%, at least 75%, at least 90% or as much as 100% in a desired time frame (e.g., within 2 hours, within 4 hours, within 8 hours, within 24 hours, or within 2, 3 or 4 days following application of the algicidal compound. In some embodiments, 100% death of red tide organisms may be achieved within 30 minutes of application within a target area. Additionally, extracts of macro algae common in environments suitable for K. brevis were tested to see how the mixture of fatty acids in those extracts would perform as algicidal agents. Use of a single compound instead of a mixture may be preferable under many common circumstances. However, Ulva latuca and Gracilaria tikvahiae contain mixtures of fatty acids and may be used as salts or soaps or in non-methanolic solutions to control K. brevis red tide blooms, according to embodiments of the present disclosure.
To measure K. brevis mortality in a liquid, the concentration of K. brevis is measured before any algaecides are added. An algaecide is then added, and the concentration of live K. brevis measured at intervals (e.g. 1, 2, 5, 10, 20, and 30 minutes). This may also be performed in serial stages. For example, if the mortality rate of K. brevis at 30 minutes is 100%, the experiment may be repeated and the concentration of K. brevis measured at a lesser time point, such as after 20 minutes. If the mortality rate of K. brevis is still 100%, the experiment may be repeated again with the concentration measured at a lesser time point, such as after 10 minutes. The experiment may be repeated as many times as necessary to measure how long it takes for an algaecide to reach 100% mortality rate of K. brevis. Any suitable time periods may be used to measure the concentration of K. brevis.
A variety of techniques may be used to measure K. brevis concentrations. In some embodiments, staining techniques are used. Staining may be performed with Lugol's Iodine Solution stain, which will become fixed to and stain the K. brevis so that it may be visualized. Other stains may be used, such as Invitrogen™ SYTOX™ Green from Thermo Fisher Scientific, which will penetrate compromised membranes (a feature characteristic of dead cells) of K. brevis and stain them. Fluorescein Diacetate may also be used, where live cells convert the fluorescein diacetate to […] which fluoresces and may be measured. Additionally, 4′,6-diamidino-2-phenylindole (DAPI) may also be used to stain nucleic acids that are inside or outside of cells. In addition to staining methods, the concentration of K. brevis may also be measured by other imaging techniques such as manual count, microscopy, fluorometry, flow cytometry, or other possible staining or counting techniques. FIG. 3 depicts one method of measuring K. brevis concentration using Invitrogen™ SYTOX™ Green.

Compound | Dosage (PPM) for 100% Mortality in under 2 hrs [PPM]
CC/C=C\C/C=C\C/C=C\CCCCCCCC(=O)O [Alpha-linolenic Acid] | 3
CCCCCC/C=C\CCCCCCCCCC(=O)O [Vacennic Acid] | >6
CCCCCCCCCCCCCCCC(=O)O [Palmitic Acid, reference compound] | >10
CCCCC/C=C\C/C=C\C/C=C\C/C=C\CCCCCC(=O)O [Adrenic Acid] | <50
CCCCCC/C=C\CCCCCCCC(=O)O [Palmitoleic Acid] | 3
CC/C=C\C/C=C\C/C=C\C/C=C\C/C=C\CCCC(=O)O [Eicosapentaenoic Acid] | <2
CCCCC/C=C\C/C=C\C/C=C\C/C=C\CCCC(=O)O [Arachidonic Acid] | 1.5
CC/C=C\C/C=C\C/C=C\C/C=C\C/C=C\C/C=C\CCC(=O)O [Docosahexanoic Acid] | <2.5
CC/C=C\C/C=C\C/C=C\C/C=C\CCC(=O)O [Hexadecatetraenoic Acid] | >1
CC/C=C\C/C=C\C/C=C\C/C=C\CCCCC(=O)O [Stearidonic Acid] | >2

system: K. brevis cells; assay: Large-scale mesocosm experiment, efficacy of algicide treatment (red tide cell counts); type: cell-based, Karenia brevis; conditions: 15 or 25 ppm particles; 1400 L tanks; 1 million cells/L; first (15 minute) sampling period
Experimental: A large-scale mesocosm experiment was conducted to evaluate the efficacy of algicide treatment and marine organism toxicity. In each of four 1400 L exposure tanks containing K. brevis cells at a red tide concentration of 1 million cells/L, potassium ricinoleate particles were added to the tanks at levels of 15 or 25 ppm. At 15 minutes after addition of the algicidal agent to each tank, water samples were collected for red tide cell counts.
Marine organism toxicity was evaluated by adding grass shrimp or Gulf killifish to the tanks along with the red tide cells and 15 or 25 ppm of the algicidal compounds. The red tide cells were quickly killed as before. After 18 and 24 hours, all shrimp remained alive. After 18 hours all fish were alive, but significant fish mortality was observed after 24 hours. The fish mortality was determined to be due to insufficient tank water circulation and oxygenation, and repeating the fish experiment with adequate circulation and oxygenation should eliminate or at least reduce the observed fish mortality.

Compound | red tide cell mortality (no live cells under microscopic examination)
CCCCCC[C@@H](O)C/C=C\CCCCCCCC(=O)[O-].[K+] [potassium ricinoleate] | complete red tide cell mortality
